Assays:
[1] = tested on: osteosarcoma cell line UMR-106; conditions: for PTH bioactivity: 24 h pre-incubation of UMR-106 cells with 20 mM salt prior to TGplPTH treatment, five experiments; for synergistic effect with PTH in generation of cAMP: UMR-106 osteoblast cells, 20 mM salt
Description: The present example describes in vitro studies on rat osteosarcoma cells to investigate if a combination of parathyroid hormone (PTH) and Strontium (used as SrCl2) on activation of bone formation factors like increased cAMP production in osteoblasts.
The osteosarcoma cell line UMR-106 (NewLab Bioquality AG, Erkrath, Germany) was used to perform the bioassay.
UMR-106 cells were seeded in growth medium at a density of 30000 cells/cm^2 and incubated at 37° C./8.0% CO2 After 24 hours, medium was exchanged with either fresh medium, medium containing 20 mM SrCl2 or medium containing 20 mM CaCl2. Cells were further incubated at 37° C./8.0% CO2 for 24 hours. Cells were harvested according to the following procedure:
Cells were washed twice with HBSS and detached from the surface using 6 ml trypsine/EDTA for 3 min at room temperature. Trypsin digestion was stopped with 12 ml growth medium. Following centrifugation (3 min, 1000 rpm, RT) cells were resuspended in 12 ml starvation medium and counted with a CASY cell counter. The rate of dead cells was below 10% in every experiment. Cells were resuspended to a final concentration of 1.6×10^6 cells/ml in starvation medium. 50 μl of cell suspension was transferred into each well of a 96-well plate and incubated for 30 min at 37° C., 8.0% CO2.
Samples were diluted in freshly prepared starvation medium containing 2 mM IBMX (SI medium). For preparation of SI-medium 30 μl of a 0.67M IBMX stock in DMSO was added to 10 ml of starvation medium.
All sample dilutions were prepared with this medium to inhibit phosphodiesterase activity in UMR-106 cells (Janik, P., 1980; Chasin M. and Harris, D. N., 1976). 50 μl of diluted samples (as indicated in results) were added to the cells after 30 min incubation at 37° C. For cAMP production cells were incubated for 1 h at 37° C., 8.0% CO2. Each sample concentration was added to cells at least in duplicates following cAMP analysis in duplicates.
Cell lysis and dilution of cAMP For extraction of cAMP 100 μl of cell suspension containing PTH was incubated with 25 μl (final dilution 1:5) lysis reagent solvent 1A that is part of the cAMP Biotrak EIA kit (GE Healthcare). For total lysis, cells were shaken for 15 min at 500 rpm at room temperature. […]
Data analysis. The optical density was determined in a plate reader (Synergy HT) by measuring the absorbance of the samples at 450 nm using the software KC4. […]
cAMP concentration of the samples. Taking into account the dilution factor (20×) the produced cAMP amounts were calculated using the parameters (slope and intercept) of the standard curve.
Preparation of Samples for Bioassay Analysis. […] For all samples and all dilutions, mean values of OD450, standard deviations, cAMP concentrations and coefficients of variations were calculated.

SaOS-2 cell = tested on: SaOS-2 cell
Description: For the initial experiments, cells were seeded on the surface of clots.

[2] = tested on: human osteoblast-like cells (SaOS-2); assay: Alamar Blue proliferation of cells grown on fibrin clots; format: cell-based; conditions: SaOS-2 on clots up to 7 days; Sr salt in thrombin dilution buffer; compared to normal clot with 20 mM CaCl2
Description: (§1) For in-vitro experiments, the clots were prepared by pipetting 150 μl of the fibrinogen solution to the wells of a 24 well plate. The plate was put on plate shaker to ensure an even distribution over the well bottom. 150 μl of the thrombin solution was then added to the well and the plate was put on a plate shaker to ensure homogeneous clots. A human osteoblast-like cell line (SaoS-2) was cultured on the clots for up to 7 days to see if any differences in cell proliferation/cell differentiation could be observed.

[3] = tested on: human osteoblast-like cells (SaOS-2); assay: alkaline phosphatase production of cells grown on fibrin clots; format: cell-based; conditions: SaOS-2 on clots containing strontium; production over 30 minutes; preliminary result
Description: as §1
These experiments are being repeated with a 14 day investigative period.

[4] = turbidimetric analysis of clots; format: physicochemical; conditions: strontium containing clots in comparison to calcium containing clots
Description: In addition to the cell studies observation, turbidmetric analysis was carried out to examine if the clot structure was altered as a result of the strontium (FIG. 4) The clot turbidity is directly proportional to average cross-sectional area of the fibres, therefore the more turbid the clot the greater the fiber diameter.

| SMILES | PTH bioactivity [1] | synergistic effect with PTH in generation of cAMP [1] | time at which cell death occurs (SaOS-2 cell; SaOS-2, 12.5 mM CaCl2 in medium) | cell survival / proliferation (MTS assay) (SaOS-2 cell; SaOS-2 on tissue culture plastic, medium with 12.5 mM Sr or Ca) | proliferation (Alamar Blue) [2] | alkaline phosphatase expression [3] | clot turbidity (kinetics and absorbance) [4] |
| --- | --- | --- | --- | --- | --- | --- | --- |
| [Ca+2].[Cl-].[Cl-] [CaCl2, calcium chloride, reference compound] | no change in PTH bioactivity | No such effect | ≤ 24 h | Cell death | – | – | – |
| [Cl-].[Cl-].[Sr+2] [SrCl2, Strontium Chloride] | twofold increased bioactivity | positive synergistic effect | – | – | significant increased proliferation | increase in alkaline phosphatase expression | very little difference in the kinetics and absorbance |
| CC(=O)[O-].CC(=O)[O-].[Sr+2] [Strontium Acetate] | – | – | – | – | – | appear not to be significant | – |
